US7807663B2, “Therapeutic agents for diabetes” (Ajinomoto Co., Inc., priority 2003, dated 2010)
≈ marks a conversion by molar mass, not a printed value.

Tests used:
KK-Ay mice = experiment: Combinational effect with biguanide (metformin) using KK-Ay mice (Example 4); assay type: in vivo; conditions: combined with metformin, compared with alone groups, same experiment as Example 3
Description: (§1) The compound (III) (30 mg/kg) was orally administered to C57BL/KsJ-db/bdJcl mice (10 week age, male) and soon after that, metformin (100 mg/kg) was orally administered. 60 minutes after administration, the blood was taken from their caudal veins to determine the blood glucose level.
The same experiment is conducted as that of Example 3 except that the compounds of the Compound Nos. 6, 8, 62, 80, 81, 88, 91, 96, 105, 106, 129, 130, 131 and 132 in Tables 1 and 2 are used instead of the compound (III), and KK-Ay mice are used instead of db/bd mice.

C57BL/KsJ-db/bdJcl mice [1] = experiment: Combinational effect with glitazone (pioglitazone) using db/db mice, oral glucose load (Examples 5 and 6); assay type: in vivo; conditions: single oral administration combined with pioglitazone 10 mg/kg/day oral for 10 days, compared with alone groups
Description: The oral glucose load experiments are conducted using C57BL/KsJ-db/bdJcl mice in the conditions with or without the oral administeration of pioglitazone (10 mg/kg/day) for 10 days and with or without a single oral administration of the compound (III).
The same experiment is conducted as that of Example 5 except that the compounds of the Compound Nos. 6, 8, 62, 80, 81, 88, 91, 96, 105, 106, 129, 130, 131 and 132 in Tables 1 and 2 are used instead of the compound (III).

C57BL/6NCrj mice = experiment: Combinational effect with insulin secretagogue (gliclazide) using normal mice (Example 1); assay type: in vivo; conditions: compound 100 mg/kg oral combined with gliclazide 3 mg/kg oral, compared with alone groups
Description: FIG. 1 is a chart showing a combinational effect of the compound (II) and gliclazide in Example 1 (average value±standard deviation, each group N=4).
The compound (II) of the Compound No. 96 in above Table 1, which is indicated by the following structural formula, was used for the investigation. The compound is that described as Example 129 in WO02/44180 and synthesized in accordance with the method described in the international publication.
(§2) The compound (II) (100 mg/kg) was orally administered to C57BL/6NCrj mice (11 week age, male) and soon after that, gliclazide (3 mg/kg) was orally administered. After administration, the blood was taken from their caudal veins over time to determine the blood glucose level. Area under the curve of blood glucose level changes until 70 minutes after the administration was set as an index and variations from a control group (Vehicle administered group) were compared.

C57BL/KsJ-db/bdJcl mice [2] = experiment: Combinational effect with insulin using db/db mice (Examples 7 and 8); assay type: in vivo; conditions: combined with insulin 0.2 U/kg, compared with alone groups, same experiment as Example 3
Description: The compound (III) (30 mg/kg) was orally administered to C57BL/KsJ-db/bdJcl mice (10 week age, male) and soon after that, metformin (100 mg/kg) was orally administered. 60 minutes after administration, the blood was taken from their caudal veins to determine the blood glucose level. The same experiment is conducted as that of Example 3 except that insulin (0.2 U/kg) is used instead of metformin. […] The same experiment is conducted as that of Example 7 except that the compounds of the Compound Nos. 6, 8, 62, 80, 81, 88, 91, 96, 105, 106, 129, 130, 131 and 132 in Tables 1 and 2 are used instead of the compound (III).

adipose cells of rats = experiment: Evaluation of the sugar transportation activity (2-[14C(U)]-deoxy-D-glucose incorporation); assay type: cell-based, Wistar rats; conditions: concentration with reinforcing effect of 50% of that of insulin (100 nM) = 100%; rat adipose cells, 30 min pre-culture at 37° C., 5 min uptake
In short: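 Collagenase-isolated epididymal adipocytes from male Wistar rats in 2% BSA/KRH (pH 7.6) preincubated with compound 30 min at 37 °C, then pulsed with 2-[14C(U)]-deoxy-D-glucose (0.5 μCi/sample) 5 min; uptake stopped with 10 μM cytochalasin B, cells separated through dinonyl phthalate and counted by scintillation. EC50 (μg/mL) = concentration giving 50% of the 100 nM insulin effect.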

C57BL/KsJ-db/bdJcl mice [3] = experiment: Combinational effect with biguanide (metformin) using db/db mice (Example 3); assay type: in vivo; conditions: compound 30 mg/kg oral combined with metformin 100 mg/kg oral, compared with alone groups
Description: FIG. 2 is a chart showing a combinational effect of the compound (III) and metformin in Example 3 (average value+standard deviation, each group N=6).
The compound (III) of the Compound No. 98 in above Table 1, which is indicated by the following structural formula, was used for the investigation. The compound is that described as Example 131 in WO02/44180 and synthesized in accordance with the method described in the international publication.
as §1

GK rats = experiment: Combinational effect with insulin secretagogue (gliclazide) using GK rats (Example 2); assay type: in vivo; conditions: combined with gliclazide, compared with alone groups, same experiment as Example 1
Description: as §2
The same experiment is conducted as that of Example 1 except that the compounds of the Compound Nos. 6, 8, 62, 80, 81, 88, 91, […], 105, 106, 129, 130, 131 and 132 in Tables 1 and 2 are used instead of the compound (II), and GK rats are used instead of normal mice.

Row | Compound | hypoglycemic action (blood glucose level) (KK-Ay mice) | hypoglycemic action (oral glucose load) (C57BL/KsJ-db/bdJcl mice [1]) | hypoglycemic action (area under the curve of blood glucose level changes until 70 minutes, variation from vehicle group) (C57BL/6NCrj mice) | hypoglycemic action (blood glucose level) (C57BL/KsJ-db/bdJcl mice [2]) | EC50 (adipose cells of rats) | hypoglycemic action (blood glucose level 60 minutes after administration) (C57BL/KsJ-db/bdJcl mice [3]) | hypoglycemic action (blood glucose level) (GK rats)
1 | CCOCC(=O)N1[C@@H]2CCCC[C@H]2NC2=C(C(=O)NC2)[C@H]1c1ccccc1CC [Compound 96] | remarkable hypoglycemic action | remarkable hypoglycemic action | remarkable hypoglycemic action | remarkable hypoglycemic action | 5.4 µg/mL (≈ 13.6 µM) | – | –
2 | CCc1ccccc1[C@@H]1C2=C(CNC2=O)N[C@@H]2CCCC[C@H]2N1C(C)=O [Compound 98] | – | remarkable hypoglycemic action | – | remarkable hypoglycemic action | 4 µg/mL (≈ 11.3 µM) | remarkable hypoglycemic action | remarkable hypoglycemic action
